Measurements reported in paper doi:10.1101/2024.10.27.620470v1 (biorxiv, 2024).

biological target: G3BP1NTF-2-GFP (Homo sapiens, UniProt Q13283); assay: fluorescence plate PPI inhibition assay; type: biochemical
Sequence (Q13283 1-139): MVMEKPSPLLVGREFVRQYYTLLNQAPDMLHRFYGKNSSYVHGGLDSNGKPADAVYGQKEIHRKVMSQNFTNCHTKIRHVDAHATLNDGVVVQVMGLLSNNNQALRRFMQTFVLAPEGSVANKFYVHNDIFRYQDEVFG

`CN1C[C@H](C(=O)N[C@]2(C)O[C@@]3(O)[C@@H]4CCCN4C(=O)[C@H](Cc4ccccc4)N3C2=O)C[C@@H]2c3cccc4[nH]cc(c34)C[C@H]21` [Dihydroergotamine] and `CC[C@H](NC(=O)c1c(C)c(-c2ccccc2)nc2ccccc12)c1ccccc1` [SB_222200] are within error of each other in IC50: 13.2 ± 5.8 µM for the first, 13 ± 0.6 µM for the second.

`O=C1NCN(c2ccccc2)C12CCN(CCCC(c1ccc(F)cc1)c1ccc(F)cc1)CC2` [Fluspirilene] and `COc1ccc(Br)cc1S(=O)(=O)NC(=O)/C=C/c1ccccc1Cc1ccc2ccccc2c1` [L-798106] are within error of each other in IC50: 10.5 ± 1.8 µM for the first, 11.6 ± 4.5 µM for the second.

Work on `CNC(=O)c1c(F)cccc1Nc1nc(Nc2cc3c(cc2OC)CCN3C(=O)CN(C)C)nc2[nH]ccc12` [GSK1838705A] yielded an IC50 of 14.5 ± 4.9 µM.
